Columns and labels:
[1] = tested on: Trypanosoma cruzi (Tulahuen strain); test: Anti-protozoan action (in vivo), survival of infected C3H/Hecrj mice (Example 4); design: species or system Trypanosoma cruzi (Tulahuen strain) in male C3H/Hecrj mice; conditions: 200 mg/kg on days 4-8; 200,000 T. cruzi i.p.; 4 mice; control 12 days
Procedure: Trypanosoma cruzi (Tulahuen strain) in the number of 200,000 was intraperitoneally administered to a group of 5 week old male C3H/Hecrj mice. At each of fourth, fifth, sixth, seventh and eighth day of the administration, 200 mg/kg of compound 1) was given to the mice. Control group was given saline solution instead of compound 1). The anti-protozoaneffect of compound 1) was determined based on the days of survival of the mice.

[2] = Acute toxicity; conditions: mouse, in vivo, ip
Source text: ICR mice were intraperitoneally administered with compound 1) for the acute toxicity test. Observation was continued for 14 days after the administration.

[3] = tested on: Trypanosoma cruzi; test: Anti-protozoan action 2 (in vitro), T. cruzi culture in GIT medium; assay type: cell-based; design: key: +++: same number of protozoa alive as control; ++: slightly less number alive than control; +: less number alive than control; ±: only a few alive; -: all dead; conditions: GIT medium (serum-free), 27° C., 120 hours
Procedure: Trypanosoma cruzi was cultured at 27° C. in a GIT medium (serum-free medium) manufactured by Nippon Seiyaku K. K. which was modified to contain […] of hemine. 50 μmol, 100 μmol, 250 μmol and 500 μmol of each of compounds 1) to 3) were added thereto. 120 hours later, life or death of the protozoa was observed under microscope and scored according to the criteria in Example 1. Control was free of any of compounds 1) to 3).

[4] = tested on: Trypanosoma cruzi (Tulahuen Strain); test: Deaths and presence of protozoa in infected ICR mice, compound 1) with or without anionic copolymer (Example 5); assay type: in vivo, Trypanosoma cruzi (Tulahuen Strain) in ICR male mice
Procedure: Five groups (Groups 1 to 5) of four week old ICR male mice, each group consisting of 3 mice, were provided. Group 2 and Group 5 mice were given 4.4 mg of acrylic acid-diisobutylvinyl ether copolymer (monomer ratio=1:1, average molecular weight=1.29×10^5) as dissolved in a 0.2 ml saline. On the second day, all animals were intraperitoneally given Trypanosoma cruzi (Tulahuen Strain) in the number of 40,000 for each. On the fifth, sixth, seventh, eighth and ninth day of the administration of the Tripanosoma, Group 1 and Group 2 mice were given saline, and Group 3 and Group 5 mice were given compound 1) (200 mg/kg) as dissolved in saline. Group 4 mice were intraperitoneally given 4.4 mg of acrylic acid-diisobutyl vinyl ether copolymer (monomer ratio=1:1, average molecular weight=1.29×10^5) and compound 1) (200 mg/kg) on the fifth day of the administration of the Trypanosoma, and on the sixth, seventh, eighth and ninth day of the administration, compound 1) (200 mg/kg) was intraperitoneally administered. Observation was continued until 60 th day of administration of Trypanosoma. The mice which were alive on the 60th day were killed and dissected to check the presence or absence of the protozoa in blood, the heart and in the liver under microscope.

[5] = tested on: Trypanosoma cruzi; test: Anti-protozoan action 1 (in vitro), T. cruzi-infected A204 cells; assay type: cell-based; design: key: +++: same number of protozoa alive as control; ++: slightly less number alive than control; +: less number alive than control; ±: only a few alive; -: all dead; conditions: A204 cells infected with T. cruzi, 37° C., 24 hours
Procedure: A204 cells (derived from a […]), which had been infected in advance with Trypanosoma cruzi and maintained by subculture at 37° C., were cultured in a 24-well plate for tissue culture. The protozoa in the number of about 10^5 were confirmed to be present. After the cells were treated with 50 μmol, 100 μmol and 500 μmol of compounds 1) to 3), they were cultured at 37° C. for 24 hours. Life and death of the protozoa was observed under microscope and scored. The medium used was Dulbecco Modified Eagle Medium manufactured by Dainihon-Seiyaku K. K. added with 10% bovine serum. Control was free of any of compounds 1 to 3).

[6] = tested on: Trypanosoma cruzi (Tulahuen strain); test: Anti-protozoan action (in vivo), survival of infected ICR mice (Example 3); design: species or system Trypanosoma cruzi (Tulahuen strain) in male ICR mice; conditions: 200 mg/kg on days 5-9; 400,000 T. cruzi i.p.; all of 3 mice; control 14-15 days
Procedure: Trypanosoma cruzi (Tulahuen strain) in the number of 400,000 was intraperitoneally administered to a group of 4 week old male ICR mice. At each of fifth, sixth, seventh, eighth and ninth day of the administration,200 mg/kg of compound 1) was given to the mice. Control group was given saline solution instead of compound 1). The anti-protozoan effect of compound 1) was determined based on the days of survival of the mice.

[7] = ICR mice, intraperitoneal, observation 14 days

| SMILES | days of survival of the mice [1] | LD50 at 336 h [2] [mg/kg] | Life or death of the protozoa, score ([3]; 50 μmol) | Life or death of the protozoa, score ([3]; 100 μmol) | Life or death of the protozoa, score ([3]; 250 μmol) | Life or death of the protozoa, score ([3]; 500 μmol) | Number of Dead Samples ([4]; Group 3: compound 1) 200 mg/kg on days 5-9) | death in the groups given compound 1) ([4]; Group Nos. 3, 4 and 5) | Life and death of the protozoa, score ([5]; 50 μmol) | Life and death of the protozoa, score ([5]; 100 μmol) | Life and death of the protozoa, score ([5]; 500 μmol) | days of survival of the mice [6] | LD50 at 336 h [2, 7] [mg/kg] |
| --- | --- | --- | --- | --- | --- | --- | --- | --- | --- | --- | --- | --- | --- |
| O=[N+]([O-])c1nccn1COCC=CCO [Compound 1)] | more than 20 days | 830 | ++ | ++ | + | - | 0 | no death | ± | - | - | more than 50 days |  |
| O=[N+]([O-])c1nccn1COC(CO)CO [Compound 2)] |  |  | +++ | +++ | +++ | +++ |  |  | ++ | ++ | - |  | 4300 |
| O=[N+]([O-])c1nccn1[C@H]1O[C@H](CO)[C@@H](O)[C@H]1O [Compound 3)] |  |  | +++ | +++ | +++ | + |  |  | ++ | ++ | + |  | > 5000 |

— patent publication US5310749A, “Antiprotozoal composition containing a 2-nitroimidazole derivative and method thereof” (Pola Chemical Industries Inc., priority 1991, dated 1994)
